Measured values as given in patent US7691890B2, “Anti-viral uses of leflunomide products” (priority 1998, dated 2010).
Like-named read-outs stand apart in the source and are kept apart here.

Key:
[1] = test system: Influenza A (H3N2); test: Neutral red uptake test; settings: IC50 divided by EC50
[2] = test system: Influenza B; test: CPE inhibition test; assay type: cell-based; settings: for EC50: Influenza B virus, MDCK, read-out: CPE Inhibition test EC50; for CPE Inhibition test SI: Influenza B, IC50 divided by EC50
[3] = test system: Measles Virus; test: microbe, parasite or virus in culture; assay type: cell-based, Measles virus (Chicago strain); settings: for Neutral Red Uptake test SI: IC50 divided by EC50
[4] = Toxicity to 2.2.15 cells by neutral red dye uptake; assay type: cell-based; settings: human, 2.2.15 human liver cells
Method: Toxicity of test compounds to cultures of 2.2.15 cells was also determined as follows. Four concentrations of each compound were assayed and compared to untreated control cultures. Toxicity was determined by the uptake of neutral red dye, as determined by absorbance at 510 nm relative to untreated cells.

[5] = test system: Adenovirus Type 1; test: Neutral red uptake test; assay type: cell-based, Adenovirus type 1 (65089/Chicago); settings: IC50 divided by EC50
[6] = test system: Parainfluenza Type 3 Virus; test: organism not typed; assay type: cell-based, parainfluenza type 3 virus (14702); settings: for CPE Inhibition test SI: IC50 divided by EC50
[7] = test system: Influenza A (H1N1); test: CPE inhibition test; assay type: cell-based; settings: for CPE Inhibition test SI: Influenza A (H1N1), IC50 divided by EC50; for EC50: Influenza A virus, H1N1, MDCK, read-out: CPE Inhibition test EC50
[8] = test system: Respiratory Syncytial Virus A; test: microbe, parasite or virus in culture; assay type: cell-based, Respiratory syncytial virus (RSV) (A2); settings: for Neutral Red Uptake test SI: IC50 divided by EC50
[9] = test system: Influenza B; test: Neutral red uptake test; settings: IC50 divided by EC50
[10] = test system: Adenovirus Type 1; test: CPE inhibition test; assay type: cell-based, Adenovirus type 1 (65089/Chicago); settings: IC50 divided by EC50
[11] = test system: Measles Virus; test: microbe, parasite or virus in culture; assay type: cell-based, Measles virus (Chicago strain); settings: for CPE Inhibition test SI: IC50 divided by EC50
[12] = test system: Influenza A (H3N2); test: CPE inhibition test; assay type: cell-based; settings: for CPE Inhibition test SI: Influenza A (H3N2), IC50 divided by EC50; for EC50: Influenza A virus, H3N2, MDCK, read-out: CPE Inhibition test EC50
[13] = test system: Rhinovirus Type 5; assay type: cell-based; settings: IC50 divided by EC50
[14] = test system: Respiratory Syncytial Virus A; test: microbe, parasite or virus in culture; assay type: cell-based, Respiratory syncytial virus (RSV) (A2); settings: for CPE Inhibition test SI: IC50 divided by EC50
[15] = test system: Parainfluenza Type 3 Virus; test: organism not typed; assay type: cell-based, parainfluenza type 3 virus (14702); settings: for Neutral Red Uptake test SI: IC50 divided by EC50
[16] = test system: hepatitis B virus (HBV); test: microbe, parasite or virus in culture; assay type: cell-based; settings: for EC50 / EC90: Hepatitis B virus, 216 h; for EC90: HBV DNA, 9 day treatment
[17] = test system: Influenza A (H1N1); test: Neutral red uptake test; settings: IC50 divided by EC50
[18] = test system: Rhinovirus Type 5; test: Neutral red uptake test; assay type: cell-based; settings: IC50 divided by EC50
[19] = cited from earlier work
[20] = in vivo; cited from earlier work
[21] = test system: rat CMV (RCMV RA67, Maastricht strain); test: Rat CMV infection of immunodeficient nude rats, tissue plaque assay; assay type: in vivo; settings: RCMV i.p., leflunomide 15 mg/kg/day for 14 days, 14 days post-inoculation
[22] = test system: CMV DNA; test: Dot blot quantitation of viral DNA in CMV-infected cells; assay type: cell-based; settings: CMV P8-infected HFF, 48 hours, 100 μM A771726 or 1 mM PFA; identical results in HUVEC (200 μM)
Method: All experiments included infected cultures incubated in the presence of 1 mM PFA as well as uninfected controls. 48 hours post-inoculation cells were harvested by trypsin digestion, washed in PBS, and incubated for 12 hours at 50° C. in 0.1 mg/ml proteinase K (Sigma) in digestion buffer (100 mM NaCl, 10 mM Tris-HCl, 25 mM EDTA, 0.5% SDS). DNA was extracted in phenol/chloroform, precipitated with ammonium acetate/ethanol, and resuspended in TE buffer. Following equalization of concentrations, extracted DNA was serially diluted in 96-well microtiter plates and 0.4 M NaOH/10 mM EDTA was added to each well. DNA was denatured in sealed plates by heating for 10 minutes in a 100° C. waterbath, transferred to nylon membranes (Hybond N, Amersham) using a vacuum dotblot manifold (Bio-Rad Laboratories, Hercules, Calif.), and immobilized by UV cross-linking. The cDNA probe was generated by HindIII digest of cosmid pCM 1015 (Fleckenstein et al., Gene, 18:39, 1982) which contains ˜45 kb of the UL region of the CMV AD169 genome. The probe was α-[^32P]dCTP-labelled by random priming. Unincorporated isotope was removed from labelled probe using a G-50 spin column (Worthington Biochemicals). Membranes were hybridized, washed, and bound probe was detected by autoradiography.

[23] = test system: CMV pp65, 72 kD IE1, glycoprotein B (gB); test: Immunohistochemical staining of CMV proteins in infected HUVEC; assay type: cell-based; settings: CMV VHL/E, 200 μM A771726 or 1 mM PFA
Method: Slides were incubated in the presence of absence of the agents for various intervals, acetone-fixed, and stained by the immunoperoxidase method.

[24] = test system: CMV DNA polymerase; assay type: biochemical; settings: extracts of VHL/E-infected HUVEC or P8-infected HFF, various concentrations

Cc1nocc1C(=O)Nc1ccc(C(F)(F)F)cc1 [Compound 99-126, N-(4-trifluoromethylphenyl)-3-methylisoxazol-4-carboxamide]
Neutral Red Uptake test SI [1]: 1.0
EC50 [2]: 60 µM
CPE Inhibition test SI [2]: 1.2
Neutral Red Uptake test SI [3]: 2
CC50 [4]: 110 µM
Neutral Red Uptake test SI [5]: 0
CPE Inhibition test SI [6]: 0
CPE Inhibition test SI [7]: <3.2
EC50 [7]: > 20 µM
Neutral Red Uptake test SI [8]: 0
Neutral Red Uptake test SI [9]: 1.0
CPE Inhibition test SI [10]: 0
CPE Inhibition test SI [11]: 6
CPE Inhibition test SI [12]: 0
EC50 [12]: > 200 µM
CPE Inhibition test SI [13]: 1
CPE Inhibition test SI [14]: 0
Neutral Red Uptake test SI [15]: 1
EC50 [16]: > 100 µM
EC90 ([16]; 2.2.15 cells): > 100 µM
anti-viral effect on HBV (in words) ([16]; summary of Table 2): some anti-viral effect
Neutral Red Uptake test SI [17]: 1.0
Neutral Red Uptake test SI [18]: 0

NC(=O)c1ncn([C@@H]2O[C@H](CO)[C@@H](O)[C@H]2O)n1 [ribavirin, reference compound]
EC50 ([3]; Measles morbillivirus, CV-1 cells, read-out: Neutral Red Uptake test EC50): 41 µM
EC50 ([6]; MA104, MA-104 cells, read-out: CPE Inhibition test EC50): 230 µM
EC50 ([8]; human respiratory syncytial virus, MA104, MA-104 cells, read-out: Neutral Red Uptake test EC50): 82 µM
EC50 ([11]; Measles morbillivirus, CV-1 cells, read-out: CPE Inhibition test EC50): 41 µM
EC50 ([14]; human respiratory syncytial virus, MA104, MA-104 cells, read-out: CPE Inhibition test EC50): 290 µM
EC50 ([15]; MA104, MA-104 cells, read-out: Neutral Red Uptake test EC50): 120 µM

Nc1ccn(C[C@@H](CO)OCP(=O)(O)O)c(=O)n1 [Cidofovir]
neutropenia ([19]; in vivo): approximately 10 % of recipients

Cc1oncc1C(=O)Nc1ccc(C(F)(F)F)cc1 [leflunomide, N-(4-trifluoromethylphenyl)-5-methylisoxazol-4-carboxamide]
toxicity in animal studies [20]: liver and cardiac toxicity
viral load in salivary glands, lungs and spleens [21]: significantly reduced viral load

Cc1oncc1C(=O)Nc1cccc(C(F)(F)F)c1 [Compound 99-127, N-(3-trifluoromethylphenyl)-5-methylisoxazol-4-carboxamide]
Neutral Red Uptake test SI [1]: 1.0
EC50 [2]: > 200 µM
CPE Inhibition test SI [2]: 0
Neutral Red Uptake test SI [3]: 0
CC50 [4]: 67 µM
CPE Inhibition test SI [6]: 0
CPE Inhibition test SI [7]: 0
EC50 [7]: > 200 µM
Neutral Red Uptake test SI [8]: 0
Neutral Red Uptake test SI [9]: 1.1
CPE Inhibition test SI [11]: 0
CPE Inhibition test SI [12]: 0
EC50 [12]: > 200 µM
CPE Inhibition test SI [14]: 0
Neutral Red Uptake test SI [15]: 0
SI ([16]; HBV, 2.2.15 cells): 0.7
EC50 [16]: 11 µM
EC90 ([16]; 2.2.15 cells): 96 µM
Neutral Red Uptake test SI [17]: 1.0

O=c1ccn([C@@H]2O[C@H](CO)[C@@H](O)[C@H]2O)c(=O)[nH]1 [uridine]
CC50 [4]: > 100 µM
EC50 [16]: > 100 µM
EC90 ([16]; 2.2.15 cells): > 100 µM

Nc1ncnc2c1ncn2C[C@@H](CO)OCP(=O)(O)O [HPMPA, reference compound]
Neutral Red Uptake test SI [5]: >20
CPE Inhibition test SI [10]: 8

O=C([O-])P(=O)(O)O.[Na+] [PFA, sodium phosphonoformate]
quantity of viral DNA synthesized [22]: no detectable CMV DNA
expression of CMV pp65 and IE1 ([23]; 24-48 hr pi): unimpeded
expression of CMV late structural glycoprotein B (gB) ([23]; 96 hours pi): unable to express gB
CMV DNA polymerase activity [24]: complete inhibition at 1 mM
frequency of each toxicity (renal dysfunction, hypomagnesemia, hypokalemia, hypocalcemia, seizures, fever, rash) ([19]; intravenous foscarnet): more than 5% of recipients
